Data set [1] has as its system LC3A. The data set can be described thus: LC3A concentration in MCF-7 cell lysates (ELISA). The format is cell-based, human. The conditions noted are these: MCF-7, 5 mM, 24 h; control 6.726 ng/mL. The protocol:
(§1) High sensitivity assay kits (EIAab Science Co., Ltd., Wuhan, China; Abcam plc., Cambridge, United Kingdom; Cloud-Clone Corp., Katy, TX, USA) were used to determine the concentrations of selected proteins in cell lysates […] In brief, after trypsinization, cells were washed thrice with cold PBS and centrifuged at 1000× g for 5 min at 4 °C. Then, cells (1.5 × 10^6) were suspended in lysis buffer for whole-cell lysates. After the second centrifugation, cellular supernatants were frozen immediately at −70 °C. Untreated cancer cells were taken as a control.
(§2) The microtiter plates provided in the kits were pre-coated with an antibody specific to the analyzed antigen. The tests were carried out according to the manufacturer’s protocols.

Data set [2] concerns LC3A. Nature of the data set: LC3A concentration in MDA-MB-231 cell lysates (ELISA). The format is cell-based, human. Conditions: MDA-MB-231, 5 mM, 24 h; control 2.965 ng/mL. The protocol: as §1, §2
The subject of data set [3] is LC3B. Nature of the data set: LC3B concentration in MCF-7 cell lysates (ELISA). The conditions noted are these: MCF-7, 5 mM, 24 h; control 1.194 ng/mL. In kind it is cell-based, human. How it is done:
as §1, §2

Data set [4] has as its system LC3B. The data set can be described thus: LC3B concentration in MDA-MB-231 cell lysates (ELISA). In kind it is cell-based, human. The conditions noted are these: MDA-MB-231, 5 mM, 24 h; control 1.504 ng/mL. How it is done: as §1, §2
In data set [5] the test system is Beclin-1. The data set can be described thus: Beclin-1 concentration in MCF-7 cell lysates (ELISA). In kind it is cell-based, human. The conditions noted are these: 5 mM, 24 h, control 7.965 ng/mL. How it is done:
as §1, §2

Data set [6] deals with Beclin-1. The data set can be described thus: Beclin-1 concentration in MDA-MB-231 cell lysates (ELISA). Conditions: MDA-MB-231, 5 (unit uncertain), 24 h; control 3.605 ng/mL. The format is cell-based, human. The arrangement: unit of the concentration uncertain. How it is done: as §1, §2
A short description of data set [7]: Parallel artificial membrane permeability assay (PAMPA). In kind it is in vitro ADME. The conditions noted are these: 200 µM in PBS pH 7.4, 5 h at RT, read-out: permeability coefficient Pe. The protocol: All in vitro assays used for the evaluation of Les-3331 ADME-Tox parameters were described previously. In brief, for the determination of permeability, Pre-coated PAMPA Plate System Gentest^TM was purchased from Corning (Tewksbury, MA, USA). […] PAMPA plates with compounds added to the donor wells were incubated for 5 h at RT. UPLC-MS Waters ACQUITY—TQD system with the TQ Detector (Waters, Milford, MI, USA) was used next for determination of compounds concentrations in donor and acceptor wells, which were required for calculation of permeability coefficient Pe according to formulas provided by the manufacturer.

Take `Cn1cnc(N)c2ncnc1-2` [3-MA, 3-Methyladenine]: the LC3A concentration with LC3A [1] is recorded as 4.423 ng/mL; in the data set with LC3A [2], 0.994 ng/mL. Besides, the LC3B concentration with LC3B [3] was found to be 0.664 ng/mL; in the data set with LC3B [4], 0.628 ng/mL. The Beclin-1 concentration in the data set with Beclin-1 [5] is 6.344 ng/mL; with Beclin-1 [6], 2.399 ng/mL.
As to `Cn1c(=O)c2c(ncn2C)n(C)c1=O` [caffeine, reference compound], the Papp at 5 h, 200 µM in data set [7] turned out to be 6.58 ×10⁻⁶ cm/s.
